Source: patent publication US11051515B2, “3-acyl-benzamides and their use as herbicides” (Bayer Aktiengesellschaft, priority 2017, dated 2021)

Key:
[1] = test system: ALOMY; assay: Pre-emergence action against ALOMY; assay type: in vivo, Alopecurus myosuroides; details: dosage 320 g/ha; pre-emergence; scored visually after 3 weeks vs untreated controls; 100% = plants have died, 0% = like control plants
Outline: (§1)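 Seeds sown in sandy loam in wood-fiber pots and covered with soil. Greenhouse growth; visual damage scored after 3 weeks versus untreated controls (100% = dead, 0% = like control).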

[2] = test system: AVEFA; assay: Pre-emergence action against AVEFA; assay type: in vivo, Avena fatua; details: dosage 320 g/ha, scored visually after 3 weeks vs untreated controls
Outline: as §1

[3] = test system: CYPES; assay: Pre-emergence action against CYPES; assay type: in vivo, Cyperus esculentus; details: pre-emergence, dosage 320 g/ha, scored visually after 3 weeks vs untreated controls
Outline: as §1

[4] = test system: ECHCG; assay: Pre-emergence action against ECHCG; assay type: in vivo, Echinochloa crus-galli; details: pre-emergence, dosage 320 g/ha, scored visually after 3 weeks vs untreated controls
Outline: as §1

[5] = test system: LOLRI; assay: Pre-emergence action against LOLRI; assay type: in vivo, Lolium rigidum; details: dosage 320 g/ha, scored visually after 3 weeks vs untreated controls
Outline: as §1

[6] = test system: SETVI; assay: Pre-emergence action against SETVI; assay type: in vivo, Setaria viridis; details: pre-emergence, dosage 320 g/ha, scored visually after 3 weeks vs untreated controls
Outline: as §1

[7] = test system: ABUTH; assay: Pre-emergence action against ABUTH; assay type: in vivo, Abutilon theophrasti; details: pre-emergence, dosage 320 g/ha, scored visually after 3 weeks vs untreated controls
Outline: as §1

[8] = test system: AMARE; assay: Pre-emergence action against AMARE; assay type: in vivo, Amaranthus retroflexus; details: pre-emergence, dosage 320 g/ha, scored visually after 3 weeks vs untreated controls
Outline: as §1

[9] = test system: MATIN; assay: Pre-emergence action against MATIN; assay type: in vivo, Matricaria inodora; details: Dosage 320 g/ha, pre-emergence
Outline: as §1

[10] = test system: PHBPU; assay: Pre-emergence action against PHBPU; assay type: in vivo, Pharbitis purpurea; details: Dosage 320 g/ha, pre-emergence
Outline: as §1

[11] = test system: POLCO; assay: Pre-emergence action against POLCO; assay type: in vivo, Polygonum convolvulus; details: Dosage 320 g/ha, pre-emergence
Outline: as §1

[12] = test system: STEME; assay: Pre-emergence action against STEME; assay type: in vivo, Stellaria media; details: Dosage 320 g/ha, pre-emergence
Outline: as §1

[13] = test system: VIOTR; assay: Pre-emergence action against VIOTR; assay type: in vivo, Viola tricolor; details: Dosage 320 g/ha, pre-emergence
Outline: as §1

[14] = test system: VERPE; assay: Pre-emergence action against VERPE; assay type: in vivo, Veronica persica; details: Dosage 320 g/ha, pre-emergence
Outline: as §1

[15] = test system: HORMU; assay: Pre-emergence action against HORMU; assay type: in vivo, Hordeum murinum; details: Dosage 320 g/ha
Outline: as §1

[16] = test system: ALOMY; assay: Post-emergence action against ALOMY; assay type: in vivo, Alopecurus myosuroides; details: Dosage 80 g/ha, post-emergence
Outline: (§2)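 Post-emergence foliar spray on greenhouse plants at the one-leaf stage, using wettable-powder or emulsion-concentrate formulations in water (600 to […], plus 0.2% wetting agent). Damage scored by eye roughly 3 weeks later against untreated plants: 0% = like control, 100% = dead.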

[17] = test system: CYPES; assay: Post-emergence action against CYPES; assay type: in vivo, Cyperus esculentus; details: post-emergence, dosage 80 g/ha, visual assessment about 3 weeks after treatment vs untreated controls
Outline: as §2

[18] = test system: ECHCG; assay: Post-emergence action against ECHCG; assay type: in vivo, Echinochloa crus-galli; details: post-emergence, dosage 80 g/ha, visual assessment about 3 weeks after treatment vs untreated controls
Outline: as §2

[19] = test system: LOLRI; assay: Post-emergence action against LOLRI; assay type: in vivo, Lolium rigidum; details: dosage 80 g/ha, visual assessment about 3 weeks after treatment vs untreated controls
Method: Seeds of monocotyledonous and dicotyledonous weed and crop plants are laid out in sandy loam soil in wood-fiber pots, covered with soil and cultivated in a greenhouse under good growth conditions. 2 to 3 weeks after sowing, the test plants are treated at the one-leaf stage. The compounds of the invention, formulated in the form of wettable powders (WP) or as emulsion concentrates (EC), are then sprayed onto the green parts of the plants in the form of an aqueous suspension or emulsion at a water application rate equating to […], with addition of 0.2% wetting agent. After the test plants have been left to stand in the greenhouse under optimal growth conditions for about 3 weeks, the action of the preparations is assessed visually in comparison to untreated controls (herbicidal action in percent (%): 100% activity=the plants have died, 0% activity=like control plants). […] At the same time, inventive compounds leave Gramineae crops such as barley, wheat, rye, millet/Sorghum, corn or rice virtually undamaged when applied post-emergence, even at high active ingredient dosages. In addition, some substances are also harmless to dicotyledonous crops such as soya, cotton, oilseed rape, sugar beet or potatoes. Some of the compounds according to the invention have high selectivity and are therefore suitable for controlling unwanted vegetation in agricultural crops by the post-emergence method. The data of Tables B18 to B34 below illustrate, in an exemplary manner, the […] herbicidal action of the compounds according to the invention, the herbicidal activity being stated in percent.

[20] = test system: SETVI; assay: Post-emergence action against SETVI; assay type: in vivo, Setaria viridis; details: post-emergence, dosage 80 g/ha, visual assessment about 3 weeks after treatment vs untreated controls
Outline: as §2

[21] = test system: ABUTH; assay: Post-emergence action against ABUTH; assay type: in vivo, Abutilon theophrasti; details: post-emergence, dosage 80 g/ha, visual assessment about 3 weeks after treatment vs untreated controls
Outline: as §2

[22] = test system: AMARE; assay: Post-emergence action against AMARE; assay type: in vivo, Amaranthus retroflexus; details: post-emergence, dosage 80 g/ha, visual assessment about 3 weeks after treatment vs untreated controls
Outline: as §2

[23] = test system: MATIN; assay: Post-emergence action against MATIN; assay type: in vivo, Matricaria inodora; details: post-emergence, dosage 80 g/ha, visual assessment about 3 weeks after treatment vs untreated controls
Outline: as §2

[24] = test system: PHBPU; assay: Post-emergence action against PHBPU; assay type: in vivo, Pharbitis purpurea; details: post-emergence, dosage 80 g/ha
Outline: as §2

[25] = test system: POLCO; assay: Post-emergence action against POLCO; assay type: in vivo, Polygonum convolvulus; details: post-emergence, dosage 80 g/ha
Outline: as §2

[26] = test system: STEME; assay: Post-emergence action against STEME; assay type: in vivo, Stellaria media; details: post-emergence, dosage 80 g/ha
Outline: as §2

[27] = test system: VIOTR; assay: Post-emergence action against VIOTR; assay type: in vivo, Viola tricolor; details: post-emergence, dosage 80 g/ha
Outline: as §2

[28] = test system: VERPE; assay: Post-emergence action against VERPE; assay type: in vivo, Veronica persica; details: dosage 80 g/ha
Outline: as §2

[29] = test system: AVEFA; assay: Post-emergence action against AVEFA; assay type: in vivo, Avena fatua; details: post-emergence, dosage 80 g/ha, visual assessment about 3 weeks after treatment vs untreated controls
Outline: as §2

| Compound | Pre-emergence action against ALOMY (herbicidal activity in percent) [1] [%] | Pre-emergence action against AVEFA (herbicidal activity) [2] [%] | Pre-emergence action against ECHCG (herbicidal activity) [4] [%] | Pre-emergence action against LOLRI (herbicidal activity) [5] [%] | SETVI (Table B8, pre-emergence herbicidal activity) [6] [%] | Pre-emergence action against ABUTH (herbicidal activity) [7] [%] | Pre-emergence action against AMARE (herbicidal activity) [8] [%] | Pre-emergence action against MATIN [9] [%] | Pre-emergence action against PHBPU [10] [%] | Pre-emergence action against POLCO [11] [%] | Pre-emergence action against STEME [12] [%] | Pre-emergence action against VIOTR [13] [%] | Pre-emergence action against VERPE [14] [%] | Post-emergence action against ALOMY [16] [%] | Post-emergence action against CYPES (herbicidal action in percent) [17] [%] | Post-emergence action against ECHCG (herbicidal action in percent) [18] [%] | Post-emergence action against LOLRI (herbicidal action in percent) [19] [%] | Post-emergence action against SETVI (herbicidal action in percent) [20] [%] | Post-emergence action against ABUTH (herbicidal action in percent) [21] [%] | Post-emergence action against AMARE (herbicidal action in percent) [22] [%] | also measured |
| --- | --- | --- | --- | --- | --- | --- | --- | --- | --- | --- | --- | --- | --- | --- | --- | --- | --- | --- | --- | --- | --- |
| CC1CC1C(=O)c1c(C(F)(F)F)ccc(C(=O)Nc2nnnn2C)c1Cl (stereo not shown) [1-148] | 100 | 90 | 100 | 100 | 100 | 100 | 100 | 100 | 100 | 90 | 100 | 100 | 100 | 80 | 90 | 100 | 80 | 100 | 100 | 100 | Pre-emergence action against CYPES (herbicidal activity) [3]: 90%; Pre-emergence action against HORMU [15]: 80%; Post-emergence action against MATIN (herbicidal action in percent) [23]: 100%; Post-emergence action against PHBPU [24]: 100; Post-emergence action against POLCO [25]: 80; Post-emergence action against STEME [26]: 100; Post-emergence action against VIOTR [27]: 90; Post-emergence action against VERPE [28]: 100 |
| Cn1nnnc1NC(=O)c1ccc(C(F)(F)F)c(C(=O)CCl)c1Cl [1-145] | 100 | 100 | 100 | 100 | 100 | 100 | 100 | 100 | 100 | 100 | 100 | 100 | 100 | 90 | 100 | 100 | 80 | 100 | 100 | 100 | Pre-emergence action against CYPES (herbicidal activity) [3]: 100%; Post-emergence action against AVEFA (herbicidal action in percent) [29]: 90%; Post-emergence action against PHBPU [24]: 100; Post-emergence action against STEME [26]: 100; Post-emergence action against VIOTR [27]: 100; Post-emergence action against VERPE [28]: 100 |
| CCn1nnnc1NC(=O)c1ccc(C(F)F)c(C(=O)C2CC2)c1Cl [2-168] | 100 | 90 | 100 | 100 | 100 | 100 | 100 | 100 | 80 | 90 | 100 | 100 | 100 | 100 | 100 | 100 | 100 | 100 | 100 | 100 | Pre-emergence action against HORMU [15]: 90%; Post-emergence action against AVEFA (herbicidal action in percent) [29]: 100%; Post-emergence action against MATIN (herbicidal action in percent) [23]: 100%; Post-emergence action against PHBPU [24]: 100; Post-emergence action against POLCO [25]: 100; Post-emergence action against STEME [26]: 100; Post-emergence action against VIOTR [27]: 100; Post-emergence action against VERPE [28]: 80 |
